In patent US10172946B2, “Monodisperse glycogen and phytoglycogen nanoparticles and use thereof as additives in cosmetics, pharmaceuticals, and food products” (Mirexus Biotechnologies Inc., priority 2013, dated 2019) one finds maximum absorbance retained data, which are given here for 1 compound.

This data set is described as follows: Photostability of phytoglycogen-ethyl-4-aminocinnamate conjugate versus aminocinnamate. It is filed as physicochemical. Conditions: after 4 h of exposure to UV-irradiation, thin film. The procedure: Aminocinnamate and a phytoglycogen-ethyl-4-aminocinnamate conjugate were dissolved in ethanol or in water, respectively.
Solutions were deposited as thin films onto a quartz plate and dried in air for 30 min. After drying, the samples were irradiated with UV light, as in Example 11, for 4 h and then tested for their photostability.
Photodegradation was calculated from the decrease in the maximum absorption of the respective products.

Turning to `CCOC(=O)C=Cc1ccc(N)cc1` [aminocinnamate, ethyl 4-aminocinnamate], the maximum absorbance retained is 40%.
